# Measurements: PubChem BioAssay (NCI)
# “And” between values parts separate entries of the source, which are not always exact repeats. Equal values may be shown once.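 A five-concentration, 48-hour dose response in 96-well plates underlies each endpoint, interpolated linearly between surrounding concentrations. Here, GI50 denotes the concentration required for 50% inhibition of growth. At the TGI there is no net growth.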
# Test system: LOX IMVI melanoma
# Assay: inhibition of tumour cell growth, NCI panel, 48 h
row,SMILES,TGI [µM]
1,CSC(=Nc1ccccc1)N(c1ccccc1)c1nc(=[N+](C)C)ss1,12.7

# Test system: SW-620 colon
# Assay: inhibition of tumour cell growth, NCI panel, 48 h
SMILES,TGI,GI50 [µM]
C(/C=C(\Nc1ccccc1)C12CC3CC(CC(C3)C1)C2)=Nc1ccccc1,41.7 µM,
CC1=NN(C(=O)CC(=O)Nc2ccccc2F)C(=O)C1N=Nc1ccccc1[N+](=O)[O-] (stereo not given),> 100 µM,
N#CC1=C(c2ccccc2)NNC(c2ccc(Cl)cc2)CC1=O (stereo not given),> 100 µM,
NCCNCC1CCNCC1,> 100 µM,
c1ccc2c(c1)[nH]c1c2cc[n+]2cc3c(cc12)CCCC3,11.6 µM and 16.2 µM,2.35
CSC(=Nc1ccccc1)N(c1ccccc1)c1nc(=[N+](C)C)ss1,3.27 µM,

# Test system: OVCAR-5 ovarian
# Assay: inhibition of tumour cell growth, NCI panel, 48 h
SMILES,TGI,GI50 [µM]
C(/C=C(\Nc1ccccc1)C12CC3CC(CC(C3)C1)C2)=Nc1ccccc1,34.5 µM,
CC1=NN(C(=O)CC(=O)Nc2ccccc2F)C(=O)C1N=Nc1ccccc1[N+](=O)[O-] (stereo not given),> 100 µM,
N#CC1=C(c2ccccc2)NNC(c2ccc(Cl)cc2)CC1=O (stereo not given),> 100 µM,
NCCNCC1CCNCC1,> 100 µM,
c1ccc2c(c1)[nH]c1c2cc[n+]2cc3c(cc12)CCCC3,17.9 µM and 13.6 µM,3.87
CSC(=Nc1ccccc1)N(c1ccccc1)c1nc(=[N+](C)C)ss1,28.6 µM,

# Test system: HL-60(TB) leukemia
# Assay: inhibition of tumour cell growth, NCI panel, 48 h
SMILES,TGI [µM],GI50 [µM]
C(/C=C(\Nc1ccccc1)C12CC3CC(CC(C3)C1)C2)=Nc1ccccc1,32.1,
N#CC1=C(c2ccccc2)NNC(c2ccc(Cl)cc2)CC1=O (stereo not given),> 100,
c1ccc2c(c1)[nH]c1c2cc[n+]2cc3c(cc12)CCCC3,5.39,1.27
CSC(=Nc1ccccc1)N(c1ccccc1)c1nc(=[N+](C)C)ss1,3.2,

# Test system: KM20L2 colon
# Assay: inhibition of tumour cell growth, NCI panel, 48 h
row,SMILES,TGI [µM]
1,CC1=NN(C(=O)CC(=O)Nc2ccccc2F)C(=O)C1N=Nc1ccccc1[N+](=O)[O-] (stereo not given),> 100
2,N#CC1=C(c2ccccc2)NNC(c2ccc(Cl)cc2)CC1=O (stereo not given),61.2
3,CSC(=Nc1ccccc1)N(c1ccccc1)c1nc(=[N+](C)C)ss1,13.7

# Test system: UACC-257 melanoma
# Assay: inhibition of tumour cell growth, NCI panel, 48 h
SMILES,TGI,GI50 [µM]
C(/C=C(\Nc1ccccc1)C12CC3CC(CC(C3)C1)C2)=Nc1ccccc1,73.3 µM,
CC1=NN(C(=O)CC(=O)Nc2ccccc2F)C(=O)C1N=Nc1ccccc1[N+](=O)[O-] (stereo not given),> 100 µM,
N#CC1=C(c2ccccc2)NNC(c2ccc(Cl)cc2)CC1=O (stereo not given),> 100 µM,
NCCNCC1CCNCC1,> 100 µM,
c1ccc2c(c1)[nH]c1c2cc[n+]2cc3c(cc12)CCCC3,6.83 µM and 25.6 µM,2.09
CSC(=Nc1ccccc1)N(c1ccccc1)c1nc(=[N+](C)C)ss1,4.96 µM,

# Test system: CCRF-CEM leukemia
# Assay: inhibition of tumour cell growth, NCI panel, 48 h
SMILES,TGI [µM],GI50 [µM]
C(/C=C(\Nc1ccccc1)C12CC3CC(CC(C3)C1)C2)=Nc1ccccc1,8.38,
CC1=NN(C(=O)CC(=O)Nc2ccccc2F)C(=O)C1N=Nc1ccccc1[N+](=O)[O-] (stereo not given),> 100,
c1ccc2c(c1)[nH]c1c2cc[n+]2cc3c(cc12)CCCC3,12.7,2.76
CSC(=Nc1ccccc1)N(c1ccccc1)c1nc(=[N+](C)C)ss1,4.48,

# Test system: BT-549 breast
# Assay: inhibition of tumour cell growth, NCI panel, 48 h
SMILES,TGI,GI50 [µM]
C(/C=C(\Nc1ccccc1)C12CC3CC(CC(C3)C1)C2)=Nc1ccccc1,31.6 µM,
NCCNCC1CCNCC1,> 100 µM,
c1ccc2c(c1)[nH]c1c2cc[n+]2cc3c(cc12)CCCC3,25.5 µM and 8.29 µM,8.96

# Test system: MCF7 breast
# Assay: inhibition of tumour cell growth, NCI panel, 48 h
row,SMILES,TGI
1,C(/C=C(\Nc1ccccc1)C12CC3CC(CC(C3)C1)C2)=Nc1ccccc1,59.4 µM
2,NCCNCC1CCNCC1,> 100 µM
3,c1ccc2c(c1)[nH]c1c2cc[n+]2cc3c(cc12)CCCC3,10.9 µM and 11 µM

# Test system: SNB-19 CNS
# Assay: inhibition of tumour cell growth, NCI panel, 48 h
row,SMILES,TGI
1,C(/C=C(\Nc1ccccc1)C12CC3CC(CC(C3)C1)C2)=Nc1ccccc1,33.9 µM
2,CC1=NN(C(=O)CC(=O)Nc2ccccc2F)C(=O)C1N=Nc1ccccc1[N+](=O)[O-] (stereo not given),> 100 µM
3,N#CC1=C(c2ccccc2)NNC(c2ccc(Cl)cc2)CC1=O (stereo not given),> 100 µM
4,NCCNCC1CCNCC1,> 100 µM
5,c1ccc2c(c1)[nH]c1c2cc[n+]2cc3c(cc12)CCCC3,12 µM and 9.35 µM
6,CSC(=Nc1ccccc1)N(c1ccccc1)c1nc(=[N+](C)C)ss1,15.4 µM

# Test system: IGROV1 ovarian
# Assay: inhibition of tumour cell growth, NCI panel, 48 h
SMILES,TGI,GI50 [µM]
C(/C=C(\Nc1ccccc1)C12CC3CC(CC(C3)C1)C2)=Nc1ccccc1,36.5 µM,
CC1=NN(C(=O)CC(=O)Nc2ccccc2F)C(=O)C1N=Nc1ccccc1[N+](=O)[O-] (stereo not given),> 100 µM,
NCCNCC1CCNCC1,> 100 µM,
c1ccc2c(c1)[nH]c1c2cc[n+]2cc3c(cc12)CCCC3,25 µM and 25.5 µM,5.59
CSC(=Nc1ccccc1)N(c1ccccc1)c1nc(=[N+](C)C)ss1,12.8 µM,

# Test system: UO-31 renal
# Assay: inhibition of tumour cell growth, NCI panel, 48 h
SMILES,TGI,GI50 [µM]
C(/C=C(\Nc1ccccc1)C12CC3CC(CC(C3)C1)C2)=Nc1ccccc1,29.3 µM,
CC1=NN(C(=O)CC(=O)Nc2ccccc2F)C(=O)C1N=Nc1ccccc1[N+](=O)[O-] (stereo not given),> 100 µM,
NCCNCC1CCNCC1,> 100 µM,
c1ccc2c(c1)[nH]c1c2cc[n+]2cc3c(cc12)CCCC3,30.7 µM and 33 µM,14.4
CSC(=Nc1ccccc1)N(c1ccccc1)c1nc(=[N+](C)C)ss1,28.3 µM,

# Test system: NCI-H226 lung
# Assay: inhibition of tumour cell growth, NCI panel, 48 h
row,SMILES,TGI
1,C(/C=C(\Nc1ccccc1)C12CC3CC(CC(C3)C1)C2)=Nc1ccccc1,38.5 µM
2,CC1=NN(C(=O)CC(=O)Nc2ccccc2F)C(=O)C1N=Nc1ccccc1[N+](=O)[O-] (stereo not given),> 100 µM
3,N#CC1=C(c2ccccc2)NNC(c2ccc(Cl)cc2)CC1=O (stereo not given),8.26 µM
4,NCCNCC1CCNCC1,> 100 µM
5,c1ccc2c(c1)[nH]c1c2cc[n+]2cc3c(cc12)CCCC3,7.61 µM and 5.77 µM

# Test system: HT29 colon
# Assay: inhibition of tumour cell growth, NCI panel, 48 h
SMILES,TGI,GI50 [µM]
C(/C=C(\Nc1ccccc1)C12CC3CC(CC(C3)C1)C2)=Nc1ccccc1,27.6 µM,
CC1=NN(C(=O)CC(=O)Nc2ccccc2F)C(=O)C1N=Nc1ccccc1[N+](=O)[O-] (stereo not given),> 100 µM,
N#CC1=C(c2ccccc2)NNC(c2ccc(Cl)cc2)CC1=O (stereo not given),> 100 µM,
NCCNCC1CCNCC1,> 100 µM,
c1ccc2c(c1)[nH]c1c2cc[n+]2cc3c(cc12)CCCC3,9.74 µM and 19.6 µM,2.4
CSC(=Nc1ccccc1)N(c1ccccc1)c1nc(=[N+](C)C)ss1,0.383 µM,

# Test system: OVCAR-8 ovarian
# Assay: inhibition of tumour cell growth, NCI panel, 48 h
SMILES,TGI,GI50 [µM]
C(/C=C(\Nc1ccccc1)C12CC3CC(CC(C3)C1)C2)=Nc1ccccc1,49.8 µM,
CC1=NN(C(=O)CC(=O)Nc2ccccc2F)C(=O)C1N=Nc1ccccc1[N+](=O)[O-] (stereo not given),> 100 µM,
NCCNCC1CCNCC1,> 100 µM,
c1ccc2c(c1)[nH]c1c2cc[n+]2cc3c(cc12)CCCC3,7.57 µM and 11.2 µM,1.95
CSC(=Nc1ccccc1)N(c1ccccc1)c1nc(=[N+](C)C)ss1,6.19 µM,

# Test system: U251 CNS
# Assay: inhibition of tumour cell growth, NCI panel, 48 h
row,SMILES,TGI
1,C(/C=C(\Nc1ccccc1)C12CC3CC(CC(C3)C1)C2)=Nc1ccccc1,31.7 µM
2,CC1=NN(C(=O)CC(=O)Nc2ccccc2F)C(=O)C1N=Nc1ccccc1[N+](=O)[O-] (stereo not given),> 100 µM
3,N#CC1=C(c2ccccc2)NNC(c2ccc(Cl)cc2)CC1=O (stereo not given),> 100 µM
4,NCCNCC1CCNCC1,> 100 µM
5,c1ccc2c(c1)[nH]c1c2cc[n+]2cc3c(cc12)CCCC3,9.77 µM and 12.1 µM
6,CSC(=Nc1ccccc1)N(c1ccccc1)c1nc(=[N+](C)C)ss1,17.2 µM

# Test system: SR leukemia
# Assay: inhibition of tumour cell growth, NCI panel, 48 h
SMILES,TGI,GI50 [µM]
C(/C=C(\Nc1ccccc1)C12CC3CC(CC(C3)C1)C2)=Nc1ccccc1,30.4 µM,
N#CC1=C(c2ccccc2)NNC(c2ccc(Cl)cc2)CC1=O (stereo not given),> 100 µM,
NCCNCC1CCNCC1,> 100 µM,
c1ccc2c(c1)[nH]c1c2cc[n+]2cc3c(cc12)CCCC3,7.52 µM and 4.19 µM,2.51
CSC(=Nc1ccccc1)N(c1ccccc1)c1nc(=[N+](C)C)ss1,8.01 µM,
